# Columns and labels:
# [1] = test system: NPCs of micropore-supported nuclear envelope (NE); assay: Steady-state SECM approach-curve measurement of NPC permeability to GRn; assay type: in vitro ADME, Xenopus laevis; conditions: SECM approach curve at centre of micropore-supported NE patch, 10 μm-diameter micropipet, MIB; 8.6 μM GR25 or 130 μM GR5; finite element fit, homogeneous model; fit uncertainty ±20%
# Protocol: The nucleus was isolated from the stage VI oocyte of an adult female X. laevis frog (Ecocyte Bioscience, Austin, Texas) to spread the NE on a microporous Si3N4 membrane, as reported elsewhere.[24] The large nucleus (∼0.4 mm in diameter) was isolated in the isotonic 1.5% PVP solution of mock intracellular buffer (MIB) at pH 7.4. MIB contains 90 mM KCl, 10 mM NaCl, 2 mM MgCl2, 1.1 mM EGTA, 0.15 mM CaCl2, and 10 mM HEPES, where free Ca^2+ was buffered at the physiological level of ∼200 nM in oocytes.[39] The spread NE was adhered to the membrane treated with Cell-Tak (Corning, Corning, New York).
# A home-built SECM instrument[40] with a potentiostat (CHI 7042E, CH Instruments, Austin, Texas) was controlled by using a custom LabVIEW program (National Instruments, Austin, Texas).[41] Tapered micropipets were obtained from borosilicate glass capillaries (o.d./i.d. = 1.0 mm/0.58 mm, 10 cm in length) using a CO2-laser capillary puller (model P-2000 Sutter Instrument, Novato, California). […]
# We employed DNNS-doped micropipets to measure the similar steady-state permeability of the NPCs to GRn. […] The strong transient response to GR25 is attributed to the dissociation of GR25 from the NPC as induced by an SECM tip and was investigated quantitatively by chronoamperometry below to confirm strong NPC–GR25 interactions. […]
# [2] = extra-thermodynamic assumption (tetraphenylarsonium/tetraphenylborate); cited from earlier work
# Excerpt: We calibrated the potential of the NB phase against the aqueous phase by using an extra-thermodynamic assumption (Figure 3) to calculate the free energy change in GRn transfer, as discussed later. Specifically, it was assumed that the free energies of tetraphenylarsonium and tetraphenylborate transfer across the interface are identical.[36] […] Half-wave and formal potentials are identical for electrochemically reversible transfer of tetrabutylammonium.
"steady-state permeability, kss, through the NE [1]",SMILES,formal potential of transfer across the NB/water interface [2]
7.2 × 10^–3 cm/s,N=C(N)NCCC[C@H](NC(=O)CNC(=O)[C@H](CCCNC(=N)N)NC(=O)CNC(=O)[C@H](CCCNC(=N)N)NC(=O)CNC(=O)[C@H](CCCNC(=N)N)NC(=O)CNC(=O)[C@H](CCCNC(=N)N)NC(=O)CNC(=O)[C@H](CCCNC(=N)N)NC(=O)CNC(=O)[C@H](CCCNC(=N)N)NC(=O)CNC(=O)[C@H](CCCNC(=N)N)NC(=O)CNC(=O)[C@H](CCCNC(=N)N)NC(=O)CNC(=O)[C@H](CCCNC(=N)N)NC(=O)CNC(=O)[C@H](CCCNC(=N)N)NC(=O)CNC(=O)[C@H](CCCNC(=N)N)NC(=O)CNC(=O)[C@H](CCCNC(=N)N)NC(=O)CNC(=O)[C@H](CCCNC(=N)N)NC(=O)CNC(=O)[C@H](CCCNC(=N)N)NC(=O)CNC(=O)[C@H](CCCNC(=N)N)NC(=O)CNC(=O)[C@H](CCCNC(=N)N)NC(=O)CNC(=O)[C@H](CCCNC(=N)N)NC(=O)CNC(=O)[C@H](CCCNC(=N)N)NC(=O)CNC(=O)[C@H](CCCNC(=N)N)NC(=O)CNC(=O)[C@H](CCCNC(=N)N)NC(=O)CNC(=O)[C@H](CCCNC(=N)N)NC(=O)CNC(=O)[C@H](CCCNC(=N)N)NC(=O)CNC(=O)[C@H](CCCNC(=N)N)NC(=O)CNC(=O)[C@H](CCCNC(=N)N)NC(=O)CN)C(=O)O [GR25],
,CCCC[N+](CCCC)(CCCC)CCCC [tetrabutylammonium],0.29 V

# Reference: PMC11822746, “Nanoscale Hydrophobicity of Transport Barriers in the Nuclear Pore Complex as Compared with the Liquid/Liquid Interface by Scanning Electrochemical Microscopy” (Analytical Chemistry, 2025)
